Experiments:
DENV-1 strain TC974#666 = assay: Tetravalent RT-qPCR assay Protocol A, serotype 1; type: cell-based; conditions: Dengue virus, DENV1, 72 h, RT-qPCR serotype 1 TC974#666, Vero cells, day 3
Summary of the method: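 Vero cells in MEM with 2% FCS were infected with DENV in the presence of compound and incubated for 3 days at 37° C. Lysates underwent RT and duplex qPCR for the viral 3′UTR and β-actin. EC50 came from ΔΔCp normalized to β-actin, and CC50 from the β-actin signal.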

[1] = Chiral stability at pH 7.4 (enantiomeric excess by Chiral SFC after incubation); type: physicochemical; conditions: 5 μM
Description: The chiral stability of Enantiomer 1A (R=OMe) was evaluated by determination of the enantiomeric excess (ee %) after incubation for 24 h and 48 h in a buffered solution at pH 7.4 at 40° C. and 60° C. To assess the influence of the methoxy-substituent of Enantiomer 1A (R=OMe) on the stability against racemization, the chiral stability of Enantiomer 1′A (R=H) was tested under the same conditions. To this end, 5 μM buffered (pH=7.4) solutions of 1A and 1′A were prepared by mixing 25 μL of a 100 μM solution of 1A or 1′A in DMSO with 475 μL aqueous buffer pH 7.4. Samples were taken 24 h and 48 h after incubation at 40° C. and 60° C. The analytical samples were analyzed by Chiral SFC (MS detection) and the chiral purity was expressed as the enantiomeric excess (ee %=% enantiomer A−% enantiomer B).

in vitro = type: cell-based; conditions: African green monkey, CC50
Summary of the method: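 Vero cells (10000/well) in MEM with 2% FCS were preincubated overnight with compound, then infected with DENV-1, -2, -3 or -4 (dose set to Cp ~22-24) and cultured 3 days at 37 °C. Duplex RT-qPCR measured viral 3′UTR against β-actin. EC50 by ΔΔCp; CC50 also derived.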

Compound | EC50 (DENV-1 strain TC974#666) [nM] | ee % ([1]; buffered solution pH 7.4, 40° C., 24 h) [%] | ee % ([1]; buffered solution pH 7.4, 40° C., 48 h) [%] | ee % ([1]; buffered solution pH 7.4, 60° C., 24 h) [%] | ee % ([1]; buffered solution pH 7.4, 60° C., 48 h) [%] | CC50 at 3 days (in vitro) [nM]
COc1cc(NC(C(=O)c2c[nH]c3cc(F)ccc23)c2ccc(Cl)cc2OC)cc(S(C)(=O)=O)c1 (single isomer, unassigned) [Compound 1A, 2-(4-chloro-2-methoxyphenyl)-1-(6-fluoro-1H-indol-3-yl)-2-((3-methoxy-5-(methylsulfonyl)phenyl)amino)ethanone] | 2.5 | 100 | 100 | 95 | 88 | 5000
COc1cc(NC(C(=O)c2c[nH]c3c(C)c(F)ccc23)c2ccc(Cl)cc2OC)cc(S(C)(=O)=O)c1 (single isomer, unassigned) [Compound 2A, 2-(4-chloro-2-methoxyphenyl)-1-(6-fluoro-7-methyl-1H-indol-3-yl)-2-((3-methoxy-5-(methylsulfonyl)phenyl)amino)ethanone] | 2.4 |  |  |  |  | 5300
COc1cc(NC(C(=O)c2c[nH]c3cc(OC)c(C)cc23)c2ccc(Cl)cc2OC)cc(S(C)(=O)=O)c1 (single isomer, unassigned) [Compound 4A, 2-(4-chloro-2-methoxyphenyl)-2-((3-methoxy-5-(methyl-sulfonyl)phenyl)amino)-1-(6-methoxy-5-methyl-1H-indol-3-yl)ethanone] | 0.97 |  |  |  |  | 
COc1cc(NC(C(=O)c2c[nH]c3cc(OC)c(F)cc23)c2ccc(Cl)cc2OC)cc(S(C)(=O)=O)c1 (single isomer, unassigned) [Compound 5A, 2-(4-chloro-2-methoxyphenyl)-1-(5-fluoro-6-methoxy-1H-indol-3-yl)-2-((3-methoxy-5-(methylsulfonyl)phenyl)amino)ethanone] | 3.6 |  |  |  |  | 5200
COc1cc(NC(C(=O)c2c[nH]c3c(C)c(OC)ccc23)c2ccc(Cl)cc2OC)cc(S(C)(=O)=O)c1 (single isomer, unassigned) [Compound 6A, 2-(4-chloro-2-methoxyphenyl)-2-((3-methoxy-5-(methyl-sulfonyl)phenyl)amino)-1-(6-methoxy-7-methyl-1H-indol-3-yl)ethanone] | 1.6 |  |  |  |  | > 10000
